Source: patent publication US20040077715A1, “Use of an isothiocyanate, a thiocyanate or a mixture thereof as depigmenting agent” (priority 2001, published 2004)

Key:
[1] = system: fungal tyrosinase (EC. 1.14.18.1); assay: Measurement of the power to inhibit tyrosinase (L-Dopa oxidation to dopachrome, O.D. at 475 nm); type: biochemical; conditions: for Concentration which inhibits the enzymatic activity of tyrosinase by 50%: fungal tyrosinase, L-Dopa substrate, pH 6.5, 30° C.; for Times more active than hydroquinone in inhibiting tyrosinase: relative to hydroquinone
Description: The following reaction is used: colourless L-Dopa (L-3,4-dihydroxyphenylalanine, obtained from Sigma (ref. D-9628)) is oxidized to coloured dopachrome, which absorbs at 475 nm. This reaction is catalyzed by fungal tyrosinase (EC. 1.14.18.1, obtained from Sigma (ref. T-7755)). The kinetics of the reaction are recorded by the measurement of the optical density (O.D.) as a function of the time at 30° C.
The compositions of the various solutions used are as follows:
L-Dopa at 0.35% (w/v) in the pH 6.5 buffer solution.
The inhibiting molecules are dissolved directly in the pH 6.5 buffer, in 50% methanol (methanol/distilled water) or in pure methanol, depending upon their solubility.
The concentrations in weight by volume of the various solutions of inhibitors are: 0.2%, 0.1%, 0.05%, 0.025%, 0.0125%, 0.00625% and 0.00312%.
Tyrosinase at 0.010% (w/v) in the pH 6.5 buffer solution.
The amounts of these various solutions used during the tests are presented in Tables 1 and 2 for each reaction studied:
The action of tyrosinase is evaluated by the initial rate of the reaction measured on the O.D. recording.
The initial rates of reactions without inhibitors (concentration 0) and the rates at the various concentrations tested are plotted on a curve.
The inhibiting power of a molecule is defined as the concentration which reduces the action of tyrosinase by 50%.

cultured melanocytes = assay: Power to inhibit the synthesis of melanin with regard to cultured melanocytes; type: cell-based; conditions: for Effect on the synthesis of melanin (in words) / Inhibition of the synthesis of melanin: concentration of 0.00035%; for Inhibition of the synthesis of melanin: 8 independent tests
Description: These tests were carried out on different batches of cells during experiments which were independent and repeated (8 times).
The results are expressed in mg/ml of melanin in so far as the cells are inoculated at the same concentration.

[2] = system: pigmented skin of guinea pigs; assay: Test of the depigmenting power on pigmented guinea pigs; conditions: glycerol-based cream comprising 5% of product, twice daily
Description: Guinea pigs with a pigmented skin, shaved beforehand, received twice daily, 5 days out of 7, during one to two months of treatment, applications of a glycerol-based cream comprising 5% of kojic acid (ref. Aldrich 22,046-9) or 5% of hydroquinone (ref. Aldrich H 1,790-2) or 5% of benzoyl isothiocyanate (ref. Aldrich 30,818-8) or 5% of synthetic sulforaphane prepared according to Example 3. These applications were carried out on circular regions with a diameter of 2 cm pinpointed by indelible marking using yellow ink.

[3] = system: Type-6 pigmented epidermis (reconstituted human skin); assay: Power to inhibit the synthesis of melanin with regard to pigmented human skin reconstituted in culture; type: cell-based; conditions: daily for 5 days, then two further days
Description: Type-6 pigmented epidermis (corresponding to black skin), in a proportion of three samples per test, were treated daily for 5 days with a control cream with the following composition (as % by weight): [table] with kojic acid at a concentration of 3.5×10^−5 (w/w) and with sulforaphane at a concentration of 3.5×10^−6 (w/w) in the same cream acting as excipient. At the end of the treatment, the culture skin is left for a further two days and the melanin is extracted from the treated skin and from the control skin with a mixture of solvents and sodium hydroxide (Solvable® from Packard Bioscience B.V.) and the melanin extracted is quantified by colorimetry according to a method described previously (Chemical Characterization of Hair Melanins in Various Coat-Color Mutants of Mice; Hiroyuki Ozeki et al., J. Invest.

Compound | Concentration which inhibits the enzymatic activity of tyrosinase by 50% [1] | Effect on the synthesis of melanin (in words) (cultured melanocytes) | Inhibition of the synthesis of melanin (cultured melanocytes) [%] | other results
S=C=NCc1ccccc1 [Benzyl isothiocyanate] | 0.0980 % (weight/volume) |  |  | 
O=c1cc(CO)occ1O [Kojic acid, kojic acid, reference compound] |  | no longer have an effect | 1 | Whitening of the skin ([2]; 5 days out of 7, after treating for 4 weeks): no effect; Inhibition of the synthesis of melanin (melatonin [sic]) ([3]; 3.5×10^−5 (w/w) in cream): 8%
N#C[S-].[K+] [Potassium thiocyanate] | 0.20 % (weight/volume) |  |  | 
S=C=NC1CCCCC1 [Cyclohexyl isothiocyanate] | 0.104 % (weight/volume) |  |  | 
C[S+]([O-])CCCCN=C=S (centres unmarked) [Sulforaphane] | 0.103 % (weight/volume) | inhibit the synthesis of melanin | 26.22 | Inhibition of the synthesis of melanin (melatonin [sic]) ([3]; 3.5×10^−6 (w/w) in cream): 30%; Times more active than hydroquinone in inhibiting tyrosinase [1]: approximately 1.5 times
CC(=O)N=C=S [Acetyl isothiocyanate] | 0.055 % (weight/volume) |  |  | 
O=C(N=C=S)c1ccccc1 [Benzoyl isothiocyanate] | 0.0063 % (weight/volume) | no longer have an effect | 9.5 | Desquamation of the skin at the application spots ([2]; 5 days out of 7): desquamation of the skin; Times more active than hydroquinone in inhibiting tyrosinase [1]: approximately 24 times
Oc1ccc(O)cc1 [Hydroquinone] | 0.154 % (weight/volume) | inhibit the synthesis of melanin | 42 | Cytotoxicity (cultured melanocytes; cultured melanocytes): excessively high cytotoxicity
N#CSCc1ccccc1 [Benzyl thiocyanate] | 0.25 % (weight/volume) |  |  | 
